Data reported in patent publication US20240124529A1, “ANTIVIRAL […]-[…]-CoV-2 PEPTIDES AND USES THEREOF” (Dana-Farber Cancer Institute, Inc., priority 2020, published 2024).
Bridge positions count the residues as written; N and C are the ends. Square brackets hold non-standard residues; d marks the D form. Peptide text beside a SMILES is read from it. S5 = C=CCCC[C@](C)(N)C(=O)O; Nle = CCCC[C@H](N)C(=O)O

Columns and labels:
[1] = tested on: SARS-CoV-2
[2] = target: Proteinase K (Parengyodontium album, UniProt P06873); assay: in vitro; details: pH 7.4
Proteinase K, sequence (P06873 106-384): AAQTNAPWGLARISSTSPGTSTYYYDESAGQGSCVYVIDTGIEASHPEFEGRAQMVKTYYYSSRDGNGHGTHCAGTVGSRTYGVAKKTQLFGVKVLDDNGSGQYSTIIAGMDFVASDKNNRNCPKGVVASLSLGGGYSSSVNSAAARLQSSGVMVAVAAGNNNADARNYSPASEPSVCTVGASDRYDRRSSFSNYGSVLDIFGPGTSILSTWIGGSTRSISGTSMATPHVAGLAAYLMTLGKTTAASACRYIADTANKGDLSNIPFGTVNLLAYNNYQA

[3] = type: physicochemical; details: 25-50 μM peptide in 50 mM potassium phosphate (pH 7.5) or water

For `CC[C@H](C)[C@H](NC(C)=O)C(=O)N[C@@H](CCC(N)=O)C(=O)N[C@@]1(C)CCCC=CCCC[C@@](C)(C(=O)N[C@@H](CC(C)C)C(=O)N[C@@H](CC(N)=O)C(=O)N[C@@H](CCC(=O)O)C(=O)N[C@H](C(=O)N[C@@H](C)C(=O)N[C@@H](CCCCN)C(=O)N[C@@]2(C)CCCC=CCCC[C@@](C)(C(=O)N[C@@H](CC(C)C)C(N)=O)NC(=O)[C@H](CCC(=O)O)NC(=O)[C@H](CC(N)=O)NC(=O)[C@H](CC(C)C)NC2=O)C(C)C)NC(=O)[C@H](CC(=O)O)NC(=O)[C@H]([C@@H](C)CC)NC(=O)[C@H](CCC(=O)O)NC1=O` [SEQ ID NO:52, IQX1EIDX2LNEVAKX3LNEX4L] (Ac-IQ[S5]EID[S5]LNEVAK[S5]LNE[S5]L-NH2; staple 3-7, 14-18), the IC50 [1] was < 6 µM and the half-life [2] was > 1000 min.

`CCCC[C@@H]1NC(=O)[C@H](CCC(=O)O)NC(=O)[C@H](Cc2ccc(O)cc2)NC(=O)[C@@](C)(NC(=O)[C@H](CC(C)C)NC(=O)[C@H](CC(=O)O)NC(=O)[C@H](CC(C)C)NC(=O)[C@H](Cc2ccccc2)NC(=O)[C@@H](NC(=O)[C@@H](NC(=O)[C@H](CC(N)=O)NC(=O)[C@@H](NC(=O)[C@H](CCC(N)=O)NC(=O)[C@H](CC(=O)O)NC(=O)[C@H](CC(C)C)NC(=O)[C@H](CO)NC(C)=O)[C@@H](C)CC)C(C)C)[C@@H](C)O)CCCC=CCCC[C@@](C)(C(=O)N[C@@H](CCCCN)C(=O)N[C@@H](CC(C)C)C(=O)N[C@@H](CCC(=O)O)C(=O)N[C@@H](CCC(=O)O)C(=O)N[C@@H](C)C(=O)N[C@H](C(=O)N[C@@]2(C)CCCC=CCCC[C@@](C)(C(=O)N[C@@H](CO)C(=O)N[C@@H](Cc3ccc(O)cc3)C(=O)N[C@H](C(=O)N[C@@H](CC(=O)O)C(=O)N[C@@H](CC(C)C)C(=O)N[C@@H](CCCCN)C(=O)N[C@@H](CCC(=O)O)C(N)=O)[C@@H](C)CC)NC(=O)[C@H](CCC(=O)O)NC(=O)[C@H](CC(C)C)NC(=O)[C@H](CCCCN)NC2=O)[C@@H](C)CC)NC1=O` [SEQ ID NO:177, SLDQINVTFLDLX1YEBX2KLEEAIX3KLEX4SYIDLKE] (Ac-SLDQINVTFLDL[S5]YE[Nle][S5]KLEEAI[S5]KLE[S5]SYIDLKE-NH2; staple 13-17, 24-28) gave a half-life [2] of 840 min.

`CC[C@H](C)[C@H](NC(C)=O)C(=O)N[C@@H](CCC(N)=O)C(=O)N[C@@H](CCCCN)C(=O)N[C@@H](CCC(=O)O)C(=O)N[C@H](C(=O)N[C@@H](CC(=O)O)C(=O)N[C@@H](CCCNC(=N)N)C(=O)N[C@@H](CC(C)C)C(=O)N[C@@H](CC(N)=O)C(=O)N[C@@H](CCC(=O)O)C(=O)N[C@H](C(=O)N[C@@H](C)C(=O)N[C@@H](CCCCN)C(=O)N[C@@H](CC(N)=O)C(=O)N[C@@H](CC(C)C)C(=O)N[C@@H](CC(N)=O)C(=O)N[C@@H](CCC(=O)O)C(=O)N[C@@H](CO)C(=O)N[C@@H](CC(C)C)C(N)=O)C(C)C)[C@@H](C)CC` [SEQ ID NO:10, reference compound] showed a half-life [2] of 35 min.

Work on `CC[C@H](C)[C@H](NC(=O)[C@H](Cc1ccc(O)cc1)NC(=O)[C@H](CCC(N)=O)NC(=O)[C@H](CCC(=O)O)NC(=O)[C@H](Cc1ccc(O)cc1)NC(=O)[C@H](CCCCN)NC(=O)CNC(=O)[C@H](CC(C)C)NC(=O)[C@H](CCC(=O)O)NC(=O)[C@H](CCC(N)=O)NC(=O)[C@H](CC(C)C)NC(=O)[C@H](CC(=O)O)NC(=O)[C@@H](NC(=O)[C@H](CC(C)C)NC(=O)[C@H](CO)NC(=O)[C@]1(C)CCCC=CCCC[C@](C)(NC(=O)[C@H](C)NC(=O)[C@@H](NC(=O)[C@H](CCC(=O)O)NC(=O)[C@H](CC(N)=O)NC(=O)[C@H](CC(C)C)NC(=O)[C@]2(C)CCCC=CCCC[C@](C)(NC(=O)[C@H](CCC(N)=O)NC(=O)[C@@H](NC(=O)[C@H](CC(N)=O)NC(=O)[C@@H](NC(=O)[C@@H](NC(=O)[C@H](CO)NC(=O)[C@H](C)NC(=O)[C@H](CC(N)=O)NC(=O)[C@@H](NC(=O)CNC(=O)[C@H](CO)NC(=O)[C@@H](NC(C)=O)[C@@H](C)CC)[C@@H](C)CC)C(C)C)C(C)C)[C@@H](C)CC)C(=O)N[C@@H](CCC(=O)O)C(=O)N[C@@H]([C@@H](C)CC)C(=O)N[C@@H](CC(=O)O)C(=O)N2)C(C)C)C(=O)N[C@@H](CC(N)=O)C(=O)N[C@@H](CC(C)C)C(=O)N[C@@H](CC(N)=O)C(=O)N1)[C@@H](C)CC)C(N)=O` [SEQ ID NO:158] yielded a half-life [2] of 33 min.

For “SLDQINVTFLDLEYEMKKLEEAIKKLEESYIDLKEL [SEQ ID NO:110, reference compound]”, the “alpha-helical structure in solution by circular dichroism” value [3] was “little to no alpha-helical structure”.
